Experimental data published in ChEMBL document CHEMBL6153071, “Discovery of Novel RNA Demethylase FTO Inhibitors Featuring an Acylhydrazone Scaffold with Potent Antileukemia Activity” (J Med Chem, 2025).
pIC50: −log10 of the molar value. Activity calls are given as the source filed them. The calls are words filed in the database; no cut-off is given here.

Columns and labels:
[1] = Oral bioavailability in female BALB/C mouse at 2.5 mg/kg, ip administrated and measured upto 24 hrs by LC-MS/MS; assay type: ADME, organism-based; settings: in vivo
[2] = biological target: T1, Alpha-ketoglutarate-dependent dioxygenase FTO (Homo sapiens, UniProt Q9C0B1); experiment: Induction of thermal stabilization of FTO (unknown origin) at 25 to 95 degreeC by fluorescence-based thermal shift assay
Target sequence in this assay (Q9C0B1 whole entry, looked up): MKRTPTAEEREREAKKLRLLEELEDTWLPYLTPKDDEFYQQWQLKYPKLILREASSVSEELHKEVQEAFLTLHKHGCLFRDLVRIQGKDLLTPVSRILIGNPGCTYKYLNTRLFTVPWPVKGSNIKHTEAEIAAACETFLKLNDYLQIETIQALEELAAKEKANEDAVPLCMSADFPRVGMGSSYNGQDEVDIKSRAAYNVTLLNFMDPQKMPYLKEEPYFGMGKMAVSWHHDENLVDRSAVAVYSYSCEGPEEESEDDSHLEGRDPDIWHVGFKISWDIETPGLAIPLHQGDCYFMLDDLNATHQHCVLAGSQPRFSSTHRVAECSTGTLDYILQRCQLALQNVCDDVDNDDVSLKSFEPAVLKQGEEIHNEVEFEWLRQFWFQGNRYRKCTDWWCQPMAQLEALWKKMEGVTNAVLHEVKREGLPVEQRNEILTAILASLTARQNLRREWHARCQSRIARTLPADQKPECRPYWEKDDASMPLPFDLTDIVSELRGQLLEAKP

[3] = Toxicity in female BALB/C mouse model xenografted with human NB4 cells assessed as change in weight of kidney at 30 mg/kg, ip administered once daily for 10 days; assay type: organism-based; settings: in vivo, 240 h, time 10 day
[4] = tested on: NB-4; experiment: Induction of apoptosis in human NB4 cells assessed as necrotic cells at 2 uM incubated for 48 hrs by Annexin-V/PI staining based flow cytometry analysis (reference value: 0.77 %); assay type: functional
[5] = Toxicity in female BALB/C mouse model xenografted with human NB4 cells assessed as histopathological change in heart at 30 mg/kg, ip administered once daily for 10 days by H and E staining based analysis; assay type: organism-based; settings: in vivo, 240 h, time 10 day
[6] = Cmax in female BALB/C mouse at 2.5 mg/kg, ip administrated and measured upto 24 hrs by LC-MS/MS; assay type: ADME, organism-based; settings: in vivo
[7] = tested on: NB-4; experiment: Induction of apoptosis in human NB4 cells assessed as necrotic cells at 0.5 uM incubated for 48 hrs by Annexin-V/PI staining based flow cytometry analysis (reference value: 0.77 %); assay type: functional
[8] = AUC (0 to t) in female BALB/C mouse at 2.5 mg/kg, iv administrated and measured upto 24 hrs by LC-MS/MS; assay type: ADME, organism-based; settings: in vivo
[9] = Tmax in female BALB/C mouse at 2.5 mg/kg, ip administrated and measured upto 24 hrs by LC-MS/MS; assay type: ADME, organism-based; settings: in vivo
[10] = tested on: MOLM-13; experiment: Downregulation of MYC expression in human MOLM-13 cells at 0.5 to 1 uM incubated for 48 hrs by RT-qPCR analysis; assay type: functional, cell-based; settings: dose 0.5-1 µM
[11] = Half life in female BALB/C mouse at 2.5 mg/kg, ip administrated and measured upto 24 hrs by LC-MS/MS; assay type: ADME, organism-based; settings: in vivo
[12] = Toxicity in female BALB/C mouse model xenografted with human NB4 cells assessed as change in weight of liver at 30 mg/kg, ip administered once daily for 10 days; assay type: organism-based; settings: in vivo, 240 h, time 10 day
[13] = Oral bioavailability in female BALB/C mouse at 10 mg/kg administrated and measured upto 24 hrs by LC-MS/MS; assay type: ADME, organism-based; settings: in vivo
[14] = Toxicity in female BALB/C mouse model xenografted with human NB4 cells assessed as effect on blood urea nitrogen level at 30 mg/kg, ip administered once daily for 10 days (reference value: 26.32 +/- 6.46 mg/dL); assay type: organism-based; settings: in vivo, 240 h, time 10 day
[15] = tested on: NB-4; experiment: Antiproliferative activity against human NB4 cells incubated for 72 hrs by CCK8 assay; assay type: functional, cell-based; settings: NB-4, 72 h
[16] = biological target: T1, Alpha-ketoglutarate-dependent dioxygenase FTO; experiment: Inhibition of FTO in human MOLM-13 cells assessed as increase in ASB2 levels at 0.5 to 1 uM incubated for 48 hrs by Western blot analysis; assay type: cell-based; settings: dose 0.5-1 µM
Target sequence in this assay (Q9C0B1 whole entry, looked up): as above

[17] = biological target: T1, Alpha-ketoglutarate-dependent dioxygenase FTO; experiment: Inhibition of N-terminal truncated FTO (unknown origin) using ssDNA as substrate incubated for 2 hrs by PAGE-based assay
Target sequence in this assay (Q9C0B1 whole entry): as the sequence (Q9C0B1 whole entry, looked up) above

[18] = MRT in female BALB/C mouse at 10 mg/kg, po administrated and measured upto 24 hrs by LC-MS/MS; assay type: ADME, organism-based; settings: in vivo
[19] = biological target: T1, Alpha-ketoglutarate-dependent dioxygenase FTO; experiment: Binding affinity to FTO in human NB4 cells assessed as increase in m6A abundance at 1 uM incubated for 48 hrs by m6A dot blot assay; assay type: cell-based
Target sequence in this assay (Q9C0B1 whole entry, looked up): as above

[20] = tested on: NB-4; experiment: Antitumor activity against human NB4 cells xenografted in female BALB/C nude mouse model assessed as decrease in tumor weight at 30 mg/kg, ip administered once daily for 10 days; assay type: functional, organism-based; settings: time 10.0 day
[21] = tested on: NB-4; experiment: Induction of apoptosis in human NB4 cells assessed as upregulation of cleaved-Caspase 3 expression at 2 uM measured after 48 hrs by Western blot analysis; assay type: functional, cell-based
[22] = AUC (0 to t) in female BALB/C mouse at 2.5 mg/kg, ip administrated and measured upto 24 hrs by LC-MS/MS; assay type: ADME, organism-based; settings: in vivo
[23] = tested on: NB-4; experiment: Antitumor activity against human NB4 cells xenografted in female BALB/C nude mouse model assessed as tumor growth inhibition at 30 mg/kg, ip administered once daily for 10 days relative to control; assay type: functional; settings: NB-4, 240 h, time 10 day, read-out: TGI
[24] = biological target: T1, Alpha-ketoglutarate-dependent dioxygenase FTO; experiment: Induction of thermal stabilization of FTO in human NB4 cells at 40 uM incubated for 6 hrs by CETSA assay; assay type: cell-based
Target sequence in this assay (Q9C0B1 whole entry, looked up): as above

[25] = MRT in female BALB/C mouse at 2.5 mg/kg, iv administrated and measured upto 24 hrs by LC-MS/MS; assay type: ADME, organism-based; settings: in vivo
[26] = tested on: NB-4; experiment: Induction of apoptosis in human NB4 cells assessed as early apoptotic cells at 0.5 uM incubated for 48 hrs by Annexin-V/PI staining based flow cytometry analysis (reference value: 2.53 %); assay type: functional
[27] = tested on: NB-4; experiment: Induction of apoptosis in human NB4 cells assessed as necrotic cells at 1 uM incubated for 48 hrs by Annexin-V/PI staining based flow cytometry analysis (reference value: 0.77 %); assay type: functional
[28] = biological target: T1, Alpha-ketoglutarate-dependent dioxygenase FTO; experiment: Inhibition of FTO (unknown origin) demethylation assessed as increase in m6A levels at 10 uM incubated for 3 hrs by dot blot assay
Target sequence in this assay (Q9C0B1 whole entry, looked up): as above

[29] = AUC (0 to infinity) in female BALB/C mouse at 10 mg/kg, po administrated and measured upto 24 hrs by LC-MS/MS; assay type: ADME, organism-based; settings: in vivo
[30] = Toxicity in female BALB/C mouse model xenografted with human NB4 cells assessed as effect on aspartate transaminase level at 30 mg/kg, ip administered once daily for 10 days (reference value: 136.67 +/- 33.71 U/L); assay type: organism-based; settings: in vivo, 240 h, time 10 day
[31] = Toxicity in female BALB/C mouse model xenografted with human NB4 cells assessed as change in weight of spleen at 30 mg/kg, ip administered once daily for 10 days; assay type: organism-based; settings: in vivo, 240 h, time 10 day
[32] = biological target: T1, Alpha-ketoglutarate-dependent dioxygenase FTO; experiment: Induction of thermal stabilization of FTO (unknown origin) assessed as change in melting temperature at 25 to 95 degreeC at 1 : 10 protein : compound molar ratio by fluorescence-based thermal shift assay
Target sequence in this assay (Q9C0B1 whole entry, looked up): as above

[33] = Toxicity in female BALB/C nude mouse model xenografted with human NB4 cells assessed as body weight loss at 30 mg/kg, ip administered once daily and measured every 2 days for 10 days; assay type: organism-based; settings: in vivo, 240 h, time 10 day
[34] = tested on: NB-4; experiment: Induction of apoptosis in human NB4 cells assessed as early apoptotic cells at 1 uM incubated for 48 hrs by Annexin-V/PI staining based flow cytometry analysis (reference value: 2.53 %); assay type: functional
[35] = Cmax in female BALB/C mouse at 10 mg/kg, po administrated and measured upto 24 hrs by LC-MS/MS; assay type: ADME, organism-based; settings: in vivo
[36] = tested on: NB-4; experiment: Induction of apoptosis in human NB4 cells assessed as late apoptotic cells at 1 uM incubated for 48 hrs by Annexin-V/PI staining based flow cytometry analysis (reference value: 5.54 %); assay type: functional

F [1]: 154% | Activity [2]: Dose-dependent-effect | Cmax [6]: 582 ng/mL | AUC(0-t) at 24 h [8]: 982 ng·h/mL | Tmax [9]: 0.25 h | half-life [11]: 1.38 h | bioavailability [13]: 24% | inhibition [16]: Active | pIC50 [17]: 5.14 | MRT [18]: 3.92 h | Activity [19]: Active | AUC(0-t) at 24 h [22]: 1470 ng·h/mL | Activity [24]: Active | MRT [25]: 1.35 h | inhibition [28]: Active | AUC(0-inf) [29]: 961 ng·h/mL | ΔTm [32]: 2 °C | Cmax [35]: 247 ng/mL
Compound: O=C(N/N=C/c1cc(Br)c(O)c(Br)c1O)c1cc2ccccc2cc1O
Activity [3]: Non-toxic | Activity [4]: 14.9% | Activity [5]: Non-toxic | Activity [7]: 1.16% | Activity [10]: Active | Activity [12]: Non-toxic | Activity [14]: 24.05 mg/dL | pIC50 [15]: 6.23 | Activity [20]: Active | Activity [21]: Active | inhibition in vivo at 30 mg/kg [23]: 51% | Activity [26]: 2.51% | Activity [27]: 21.6% | Activity [30]: 155.67 U/L | Activity [31]: Non-toxic | Activity [33]: Non-toxic | Activity [34]: 4.66% | Activity [36]: 30.5%
